{"source": "patent US10231995B2", "about": "“Selenium-containing compositions and uses thereof” (SELO MEDICAL GMBH, priority 2001, dated 2019)", "origin": "cited, not measured here", "note": "Read-outs that look alike come from different tables or passages of the source.", "data": [{"molecule": "O=[Se](O)O", "note": "[selenite]", "values": [{"measurement": "Eo standard redox potential", "setting": "acidic medium", "value": "−0.740 (acidic medium) Volt"}, {"measurement": "Eo standard redox potential", "setting": "basic medium", "value": "+0.366 (basic medium) Volt"}]}]}
